Test results taken from PubChem BioAssay AID248 (DTP/NCI, 2004).
“And” between values parts separate entries of the source, which are not always exact repeats. Identical values can stand only once. Inconclusive results and toxic doses are left out. Rule as the data show it: active = T/C of 150% or more; inactive = T/C below 125%.

Tested on: L1210 leukemia ip in BDF1 mice, survival T/C
Test: NCI In Vivo Anticancer Drug Screen. Data for tumor model L1210 Leukemia (intraperitoneal) in B6D2F1 (BDF1) mice
Settings: endpoint: mean survival time, higher = longer survival
How it was run: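 Read-out is survival time, reported as the treated-group measurement over the vehicle-control measurement.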

[1] = dose: 100.0 mg/kg/injection, schedule: Q04DX003 (ip), vehicle: saline
[2] = dose: 200.0 mg/kg/injection, schedule: Q04DX003 (ip), vehicle: saline
[3] = dose: 400.0 mg/kg/injection, schedule: Q04DX003 (ip), vehicle: saline
[4] = dose: 12.5 mg/kg/injection, schedule: Q01DX009 (ip), vehicle: Klucel (hydroxypropylcellulose) (HPC)
[5] = dose: 25.0 mg/kg/injection, schedule: Q01DX009 (ip), vehicle: Klucel (hydroxypropylcellulose) (HPC)
[6] = dose: 50.0 mg/kg/injection, schedule: Q01DX009 (ip), vehicle: Klucel (hydroxypropylcellulose) (HPC)
[7] = dose: 100.0 mg/kg/injection, schedule: Q01DX001 (ip), vehicle: saline
[8] = dose: 100.0 mg/kg/injection, schedule: Q04DX002 (ip), vehicle: saline with Tween-80
[9] = dose: 200.0 mg/kg/injection, schedule: Q04DX002 (ip), vehicle: saline with Tween-80
[10] = dose: 400.0 mg/kg/injection, schedule: Q04DX002 (ip), vehicle: saline with Tween-80
[11] = dose: 100.0 mg/kg/injection, schedule: Q01DX001 (ip), vehicle: carboxymethylcellulose (CMC)
[12] = dose: 200.0 mg/kg/injection, schedule: Q01DX001 (ip), vehicle: carboxymethylcellulose (CMC)
[13] = dose: 400.0 mg/kg/injection, schedule: Q01DX001 (ip), vehicle: carboxymethylcellulose (CMC)
[14] = dose: 100.0 mg/kg/injection, schedule: Q04DX003 (ip), vehicle: saline with Tween-80
[15] = dose: 200.0 mg/kg/injection, schedule: Q04DX003 (ip), vehicle: saline with Tween-80
[16] = dose: 400.0 mg/kg/injection, schedule: Q04DX003 (ip), vehicle: saline with Tween-80
[17] = dose: 200.0 mg/kg/injection, schedule: Q01DX001 (ip), vehicle: saline
[18] = dose: 400.0 mg/kg/injection, schedule: Q01DX001 (ip), vehicle: saline
[19] = dose: 100.0 mg/kg/injection, schedule: Q01DX001 (ip), vehicle: Klucel (hydroxypropylcellulose) (HPC)
[20] = dose: 200.0 mg/kg/injection, schedule: Q01DX001 (ip), vehicle: Klucel (hydroxypropylcellulose) (HPC)
[21] = dose: 400.0 mg/kg/injection, schedule: Q01DX001 (ip), vehicle: Klucel (hydroxypropylcellulose) (HPC)
[22] = dose: 100.0 mg/kg/injection, schedule: Q04DX002 (ip), vehicle: Klucel (hydroxypropylcellulose) (HPC)
[23] = dose: 200.0 mg/kg/injection, schedule: Q04DX002 (ip), vehicle: Klucel (hydroxypropylcellulose) (HPC)

Measured: T/C

CN(C)C(C)(C)CO
inactive: dose: 100.0 mg/kg/injection, schedule: Q01DX009 (ip), vehicle: saline 98 % of control | [1] 96 % of control | dose: 200.0 mg/kg/injection, schedule: Q01DX009 (ip), vehicle: saline 98 % of control | [2] 98 % of control | [3] 101 % of control

C[N+](C)(C)c1ccc(N=C=S)cc1
inactive: [4] 94 % of control | [5] 105 % of control | [6] 103 % of control

CN(C)c1ccc(C=NCCCNC2CCCCC2)cc1
inactive: dose: 25.0 mg/kg/injection, schedule: Q04DX003 (ip), vehicle: other 94 % of control | dose: 50.0 mg/kg/injection, schedule: Q04DX003 (ip), vehicle: other 102 % of control | [7] 88 % of control

Cc1ccc(NC(=O)OCC(F)(F)C(F)(F)C(F)(F)F)c(NC(=O)OCC(F)(F)C(F)(F)C(F)(F)F)c1
inactive: [8] 98 % of control | [9] 98 % of control | [10] 112 % of control

CSc1ccc(NC(=O)c2ccc(Cl)cc2)cc1
inactive: [8] 100 % of control | [9] 100 % of control | [10] 92 % of control

CCOC(=O)C1=C(Nc2ccccc2)CSC1
inactive: dose: 25.0 mg/kg/injection, schedule: Q01DX009 (ip), vehicle: water 100 % of control | dose: 50.0 mg/kg/injection, schedule: Q01DX009 (ip), vehicle: water 101 % of control | dose: 100.0 mg/kg/injection, schedule: Q01DX009 (ip), vehicle: water 94 % of control | dose: 200.0 mg/kg/injection, schedule: Q01DX009 (ip), vehicle: water 102 % of control | dose: 400.0 mg/kg/injection, schedule: Q01DX009 (ip), vehicle: water 89 % of control

CS(=O)(=O)OCC1(c2ccccc2)CCCCC1
inactive: dose: 100.0 mg/kg/injection, schedule: Q01DX001 (sc), vehicle: olive oil, sesame oil, peanut oil 101 % of control | dose: 200.0 mg/kg/injection, schedule: Q01DX001 (sc), vehicle: olive oil, sesame oil, peanut oil 103 % of control | dose: 400.0 mg/kg/injection, schedule: Q01DX001 (sc), vehicle: olive oil, sesame oil, peanut oil 108 % of control

CC1C2CC(C3(C)OCCO3)CCC2(C)CCC12OCCO2 (stereo not drawn)
inactive: dose: 100.0 mg/kg/injection, schedule: Q04DX003 (ip), vehicle: Klucel (hydroxypropylcellulose) (HPC) 101 % of control | dose: 200.0 mg/kg/injection, schedule: Q04DX003 (ip), vehicle: Klucel (hydroxypropylcellulose) (HPC) 106 % of control | dose: 400.0 mg/kg/injection, schedule: Q04DX003 (ip), vehicle: Klucel (hydroxypropylcellulose) (HPC) 106 % of control

CCOc1ccc(Cl)cc1C1N(Cc2ccccc2OC)CCCN1Cc1ccccc1OC
inactive: [11] 87 % of control | [12] 93 % of control | [13] 91 % of control

Cc1c2ccccc2c2ccccc2[n+]1[O-]
inactive: [8] 97 % of control | [9] 101 % of control

C=CCNC(=S)C(C(=O)OC)C(=O)OC
inactive: [1] 103 % of control | [2] 100 % of control | [3] 100 % of control

CC1([N+](=O)[O-])COCOC1
inactive: [1] 103 % of control | [2] 95 % of control | [3] 94 % of control

COc1cc([N+](=O)[O-])ccc1NC(=O)N(C)Cc1ccccc1
inactive: dose: 50.0 mg/kg/injection, schedule: Q01DX001 (ip), vehicle: saline with Tween-80 95 % of control | dose: 100.0 mg/kg/injection, schedule: Q01DX001 (ip), vehicle: saline with Tween-80 93 % of control | dose: 100.0 mg/kg/injection, schedule: Q01DX009 (ip), vehicle: saline with Tween-80 96 % of control | [8] 92 % of control and 93 % of control | [14] 116 % of control | dose: 200.0 mg/kg/injection, schedule: Q01DX009 (ip), vehicle: saline with Tween-80 98 % of control | [9] 94 % of control and 102 % of control | [15] 98 % of control | dose: 400.0 mg/kg/injection, schedule: Q01DX001 (ip), vehicle: saline with Tween-80 87 % of control and 88 % of control | dose: 400.0 mg/kg/injection, schedule: Q01DX009 (ip), vehicle: saline with Tween-80 94 % of control | [10] 93 % of control and 101 % of control | [16] 101 % of control

O=C(O)C(CS(=O)(=O)O)Nc1ncnc2nc[nH]c12 (stereo not drawn)
inactive: [7] 93 % of control | [17] 98 % of control | [18] 98 % of control

CC(=O)NCCOc1ccc([N+](=O)[O-])cc1
inactive: [19] 102 % of control | [20] 102 % of control | [21] 102 % of control

CCCCc1ccncc1
inactive: dose: 5.0 mg/kg/injection, schedule: Q01DX001 (ip), vehicle: saline 102 % of control | dose: 10.0 mg/kg/injection, schedule: Q01DX001 (ip), vehicle: saline 100 % of control | dose: 20.0 mg/kg/injection, schedule: Q01DX001 (ip), vehicle: saline 100 % of control | dose: 40.0 mg/kg/injection, schedule: Q01DX001 (ip), vehicle: saline 90 % of control | dose: 80.0 mg/kg/injection, schedule: Q01DX001 (ip), vehicle: saline 93 % of control | [7] 98 % of control

O=C(O)CSc1cc(Cl)ccc1Cl
inactive: [4] 102 % of control | [5] 100 % of control | [6] 106 % of control and 121 % of control | dose: 100.0 mg/kg/injection, schedule: Q01DX009 (ip), vehicle: Klucel (hydroxypropylcellulose) (HPC) 104 % of control and 92 % of control | [22] 104 % of control | dose: 200.0 mg/kg/injection, schedule: Q01DX009 (ip), vehicle: Klucel (hydroxypropylcellulose) (HPC) 105 % of control | [23] 110 % of control

Clc1nccnc1C(Cl)(Cl)Cl
inactive: dose: 50.0 mg/kg/injection, schedule: Q01DX009 (ip), vehicle: other 92 % of control | dose: 100.0 mg/kg/injection, schedule: Q01DX009 (ip), vehicle: other 95 % of control

CC1=C(C)C(C)(Cl)C1(C)Cl (stereo not drawn)
inactive: dose: 75.0 mg/kg/injection, schedule: Q01DX001 (ip), vehicle: acetone 108 % of control | dose: 150.0 mg/kg/injection, schedule: Q01DX001 (ip), vehicle: acetone 95 % of control

CC(=O)OCC1=C(C(=O)O)N2C(=O)C(NC(=O)CSc3ccncc3)C2SC1 (stereo not drawn)
inactive: dose: 100.0 mg/kg/injection, schedule: Q04DX002 (ip), vehicle: saline 103 % of control | dose: 200.0 mg/kg/injection, schedule: Q04DX002 (ip), vehicle: saline 114 % of control | dose: 400.0 mg/kg/injection, schedule: Q04DX002 (ip), vehicle: saline 107 % of control

CC(CO)CCCC(C)C1C(O)CC2C3CCC4CC(O)CCC4(C)C3CCC21C (stereo not drawn)
inactive: [19] 88 % of control | [20] 88 % of control | [21] 91 % of control

CC(C)CC(=O)N(C)c1ccccc1
inactive: dose: 50.0 mg/kg/injection, schedule: Q01DX001 (ip), vehicle: carboxymethylcellulose (CMC) 111 % of control | [11] 108 % of control | [12] 100 % of control | [13] 97 % of control

CC1C(C)C1(Br)c1ccccc1 (stereo not drawn)
inactive: [7] 91 % of control | [17] 101 % of control | [18] 96 % of control

Cc1cc(NCC(=O)NN)ccc1Cl
inactive: dose: 50.0 mg/kg/injection, schedule: Q04DX002 (ip), vehicle: Klucel (hydroxypropylcellulose) (HPC) 103 % of control | [22] 104 % of control and 114 % of control | [23] 86 % of control

Cc1ccc(S(=O)(=O)N=N/C=C2/C=CC=CN2O)cc1
inactive: dose: 40.0 mg/kg/injection, schedule: Q01DX009 (ip), vehicle: saline 93 % of control | dose: 60.0 mg/kg/injection, schedule: Q01DX009 (ip), vehicle: saline 96 % of control | dose: 90.0 mg/kg/injection, schedule: Q01DX009 (ip), vehicle: saline 94 % of control | dose: 135.0 mg/kg/injection, schedule: Q01DX009 (ip), vehicle: saline 104 % of control | dose: 175.0 mg/kg/injection, schedule: Q01DX009 (ip), vehicle: saline with Tween-80 111 % of control

CN(C)/C=N/NC(=O)C(O)c1ccccc1 (stereo not drawn)
inactive: [14] 116 % of control | [15] 103 % of control | [16] 111 % of control
